Tests used:
[1] = system: DOI-induced hypolocomotion; test: Attenuation of DOI-induced hypolocomotion in rats; assay type: in vivo, rat; conditions: 50 μmol/kg p.o., 60 min before DOI 0.3 mg/kg s.c.
Experimental: In this Example, compounds of the invention, such as Compound 1 and Compound 26, were tested for inverse agonist activity by determining whether these compounds could attenuate DOI-induced hypolocomotion in rats in a novel environment. DOI is a potent 5HT2A/5HT2C receptor agonist that crosses the blood-brain barrier.
Male Sprague-Dawley rats (Harlan, San Diego, Calif.) weighing between 200-300 g were used for all tests. Rats were housed three to four per cage. These rats were naive to experimental testing and drug treatment. Rats were handled one to three days before testing to acclimate them to experimental manipulation. Rats were fasted overnight prior to testing.
(R)-DOI HCl (C11H16INO2HCl) was obtained from Sigma-Aldrich, and was dissolved in 0.9% saline. […]
The “Motor Monitor” (Hamilton-Kinder, Poway, Calif.) was used for all activity measurement. This apparatus recorded rears using infrared photobeams. […]
In determining the effects of compounds of the invention on DOI-induced hypoactivity, animals were first injected with vehicle or the compound of the invention (50 μmol/kg) in their home cages. […] 10 min after DOI administration, animals were placed into the activity apparatus and rearing activity was measured for 10 minutes.
Results (total rears over 10 minutes) were analyzed by t-test. […]

[2] = system: JC virus infection of human glial cells; conditions: Elphick et al., Science (2004); cited from earlier work
[3] = target: T1, 5HT2A receptor (Rattus norvegicus, UniProt P14842); test: 125I-LSD displacement from brain sections, autoradiography, cortex; assay type: binding, Sprague-Dawley rats; conditions: 1 micromolar compound, 1 nanomolar 125I-LSD
T1 construct: from tissue; host or cells: Sprague-Dawley rat brain, horizontal cryostat sections (cerebral cortex)
T1 sequence (P14842 whole entry): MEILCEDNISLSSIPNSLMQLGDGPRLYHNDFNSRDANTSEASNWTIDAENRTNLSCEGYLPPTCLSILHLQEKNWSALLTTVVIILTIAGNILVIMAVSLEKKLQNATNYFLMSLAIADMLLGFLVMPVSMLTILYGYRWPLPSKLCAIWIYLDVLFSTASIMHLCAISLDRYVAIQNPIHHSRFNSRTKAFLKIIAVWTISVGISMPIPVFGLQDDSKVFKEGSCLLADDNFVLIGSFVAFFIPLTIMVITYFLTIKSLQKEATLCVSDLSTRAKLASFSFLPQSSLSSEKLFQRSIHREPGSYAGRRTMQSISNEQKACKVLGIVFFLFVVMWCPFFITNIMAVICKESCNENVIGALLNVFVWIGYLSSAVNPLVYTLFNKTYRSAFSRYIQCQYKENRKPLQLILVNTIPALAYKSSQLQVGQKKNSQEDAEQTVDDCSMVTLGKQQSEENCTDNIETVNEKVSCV

[4] = target: T2, endogenous human 5-HT2C receptor (Homo sapiens, UniProt P28335)
T2 sequence (P28335 33-458): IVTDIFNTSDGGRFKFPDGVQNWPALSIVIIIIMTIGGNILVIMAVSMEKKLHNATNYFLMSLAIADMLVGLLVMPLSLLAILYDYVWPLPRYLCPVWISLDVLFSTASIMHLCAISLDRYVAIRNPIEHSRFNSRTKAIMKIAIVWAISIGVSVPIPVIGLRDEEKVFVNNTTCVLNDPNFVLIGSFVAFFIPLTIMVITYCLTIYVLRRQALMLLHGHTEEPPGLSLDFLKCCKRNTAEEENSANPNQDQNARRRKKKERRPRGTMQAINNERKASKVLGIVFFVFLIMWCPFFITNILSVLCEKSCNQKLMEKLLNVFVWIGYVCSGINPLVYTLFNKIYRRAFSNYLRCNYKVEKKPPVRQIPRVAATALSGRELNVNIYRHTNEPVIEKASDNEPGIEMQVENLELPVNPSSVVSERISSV

SMILES | effect on DOI-induced hypolocomotion (total rears over 10 minutes) [1] | JC virus infection of human glial cells [2] | other results
COc1ccc(NC(=O)Nc2ccc(Cl)cc2)cc1-c1c(Br)cnn1C [Compound 1, 1-[3-(4-Bromo-2-methyl-2H-pyrazol-3-yl)-4-methoxy-phenyl]-3-(4-chloro-phenyl)-urea] | attenuated DOI-induced hypolocomotion | – | –
O=C(c1ccc(F)cc1)C1CCN(CCn2c(=O)[nH]c3ccccc3c2=O)CC1 [ketanserin] | – | inhibited | –
COc1ccc(NC(=O)Nc2ccc(Cl)cc2)cc1-c1c(Cl)cnn1C [Compound 26, 1-[3-(4-Chloro-2-methyl-2H-pyrazol-3-yl)-4-methoxy-phenyl]-3-(4-chloro-phenyl)-urea] | attenuated DOI-induced hypolocomotion | – | –
COc1ccc(OC(=O)Nc2cccc(-c3c(Br)cnn3C)c2)cc1 [Compound S-1610, [3-(4-Bromo-2-methyl-2H-pyrazol-3-yl)-phenyl]-carbamic acid 4-methoxy-phenyl ester] | – | – | displacement of 125I-LSD from the cortex (5HT2A) [3]: selectively displace
Cc1nc2sccn2c(=O)c1CCN1CCC(=C(c2ccc(F)cc2)c2ccc(F)cc2)CC1 [Ritanserin] | – | inhibited | –
CN1CCN2c3ccccc3Cc3ccccc3C2C1 (stereo not shown) [mianserin] | – | – | inhibition of serotonin-stimulated [35S]GTPγS binding ([4]; 30 μM mianserin): inhibits this response; effect on basal constitutive binding of [35S]GTPγS ([4]; no agonist): partial inverse agonist

— patent US20080200530A1 (priority 2005, published 2008)
